In patent US6417247B1, “Polymer/ceramic composites” (priority 1997, dated 2002):

Experiment: Release of model compounds from chitosan-calcium phosphate composites in PBS
Conditions: chitosan-TCP composite, PBS pH 7.4, 37° C., FIG. 12

O=c1[nH]cc(F)c(=O)[nH]1 [5-FU, 5-fluorouracil]
time over which the model compound was released from the composite: ≤ 10 h
